Source: US10125121B2, “FYN kinase inhibitors” (ROTTAPHARM BIOTECH S.R.L., priority 2015, dated 2018)

Legend:
[1] = target: active FYN (human recombinant, 62.7 kDa) (Homo sapiens, UniProt P06241); test: In vitro kinase assay (Z′-LYTE FRET); assay type: biochemical; details: read-out: IC50(nM) FYN INHIBITION
[2] = tested on: mechanical hyperalgesia in meniscal tear osteoarthritis; test: Surgically induced meniscal tear osteoarthritis in the rat (MMT); assay type: in vivo
From the text: Male Sprague Dawley rats (Charles River) approximately 350 g body weight were used. Rats were anesthetized using 2.5% isoflurane in oxygen with a flow rate of 1 I per minute. The right hind leg was shaved and surgically prepared. The medial collateral ligament was exposed and transected. The meniscus was grasped with a hemostat and reflected proximally toward the femur. The meniscus was cut through its full thickness at the narrowest point. The connective tissue layer and the skin were closed with coated Vicryl 8-0 and 4-0 silk sutures, respectively. Sham operated animals underwent an identical procedure with the exception that the medial collateral ligament was exposed but not transected. After a recovery period of 2 weeks, mechanical hyperalgesia was evaluated for the following 4 weeks, once a week, before and 90 minutes after drugs administration. Pharmacological oral treatment was performed for 28 days, starting from 14 days after surgery. After 6 weeks from surgery, rats (ten animals per group) were sacrificed and the ipsilateral knee was removed for histopathological analysis.
The maximum possible effect (MPE %) was calculated by the following formula: 100*(Compound−Vehicle)/(Sham−Vehicle)

[3] = target: LYN (Homo sapiens, UniProt P07948); test: Kinase selectivity panel by Cerep
[4] = target: YES (Homo sapiens, UniProt P07947); test: Kinase selectivity panel by Cerep
[5] = target: LCK (Homo sapiens, UniProt P06239); test: Kinase selectivity panel by Cerep
[6] = target: T1, FLT-3 (Homo sapiens, UniProt P36888); test: Kinase selectivity panel by Cerep; details: read-out: inhibition of FLT-3
T1 sequence (P36888 27-993): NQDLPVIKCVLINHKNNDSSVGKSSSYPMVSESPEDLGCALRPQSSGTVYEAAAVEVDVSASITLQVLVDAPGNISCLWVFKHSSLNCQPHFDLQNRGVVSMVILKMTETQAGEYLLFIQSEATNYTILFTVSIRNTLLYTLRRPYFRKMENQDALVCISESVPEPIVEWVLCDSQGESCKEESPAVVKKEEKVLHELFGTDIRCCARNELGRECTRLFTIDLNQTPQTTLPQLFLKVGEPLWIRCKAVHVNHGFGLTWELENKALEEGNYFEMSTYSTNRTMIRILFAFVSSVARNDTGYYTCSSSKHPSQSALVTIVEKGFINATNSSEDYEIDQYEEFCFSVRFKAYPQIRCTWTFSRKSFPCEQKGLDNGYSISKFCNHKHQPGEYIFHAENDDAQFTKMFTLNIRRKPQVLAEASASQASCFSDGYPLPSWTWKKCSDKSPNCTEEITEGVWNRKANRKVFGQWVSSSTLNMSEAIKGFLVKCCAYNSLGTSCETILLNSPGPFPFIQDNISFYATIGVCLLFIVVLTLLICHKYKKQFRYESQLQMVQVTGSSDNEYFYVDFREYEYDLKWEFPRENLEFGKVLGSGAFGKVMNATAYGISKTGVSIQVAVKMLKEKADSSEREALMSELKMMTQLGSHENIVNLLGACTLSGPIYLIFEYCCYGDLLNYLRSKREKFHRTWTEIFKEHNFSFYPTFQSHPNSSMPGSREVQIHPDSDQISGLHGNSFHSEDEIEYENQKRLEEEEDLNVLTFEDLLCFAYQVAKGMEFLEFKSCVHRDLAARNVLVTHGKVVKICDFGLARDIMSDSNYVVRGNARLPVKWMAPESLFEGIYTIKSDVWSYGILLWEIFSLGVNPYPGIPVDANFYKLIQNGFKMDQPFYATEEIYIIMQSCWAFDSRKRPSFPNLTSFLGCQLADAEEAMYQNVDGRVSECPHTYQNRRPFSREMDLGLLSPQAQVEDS

[7] = target: FLT-4 (Homo sapiens, UniProt P35916); test: Kinase selectivity panel by Cerep; details: read-out: inhibition of FLT-4
[8] = tested on: other kinases examined of the SRC family; test: Kinase selectivity panel by Cerep
[9] = tested on: remaining kinases examined (standard panel of about 100 human kinase assay); test: Kinase selectivity panel by Cerep
[10] = 10 mg/kg daily orally, day 21 post surgery
[11] = 10 mg/kg daily orally, day 28 post surgery
[12] = 10 mg/kg daily orally, day 35 post surgery
[13] = 10 mg/kg daily orally, day 42 post surgery
[14] = 30 mg/kg daily orally, day 21 post surgery
[15] = 30 mg/kg daily orally, day 28 post surgery
[16] = 30 mg/kg daily orally, day 35 post surgery
[17] = 30 mg/kg daily orally, day 42 post surgery

YES, sequence (P07947 whole entry): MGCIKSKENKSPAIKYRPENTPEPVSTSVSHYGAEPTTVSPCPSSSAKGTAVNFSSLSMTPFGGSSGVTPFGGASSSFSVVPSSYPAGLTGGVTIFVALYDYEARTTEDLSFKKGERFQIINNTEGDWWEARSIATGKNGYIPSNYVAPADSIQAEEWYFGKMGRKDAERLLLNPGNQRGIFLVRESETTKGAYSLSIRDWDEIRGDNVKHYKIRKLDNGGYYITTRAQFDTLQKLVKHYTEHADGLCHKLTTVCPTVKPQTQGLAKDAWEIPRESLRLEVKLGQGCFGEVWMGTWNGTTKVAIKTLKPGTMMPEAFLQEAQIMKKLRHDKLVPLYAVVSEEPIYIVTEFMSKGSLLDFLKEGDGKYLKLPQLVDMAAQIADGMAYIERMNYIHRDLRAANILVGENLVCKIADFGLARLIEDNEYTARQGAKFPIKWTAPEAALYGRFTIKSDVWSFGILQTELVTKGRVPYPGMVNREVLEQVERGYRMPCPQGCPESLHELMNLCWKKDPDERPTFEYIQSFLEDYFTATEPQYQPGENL
LCK, sequence (P06239 whole entry): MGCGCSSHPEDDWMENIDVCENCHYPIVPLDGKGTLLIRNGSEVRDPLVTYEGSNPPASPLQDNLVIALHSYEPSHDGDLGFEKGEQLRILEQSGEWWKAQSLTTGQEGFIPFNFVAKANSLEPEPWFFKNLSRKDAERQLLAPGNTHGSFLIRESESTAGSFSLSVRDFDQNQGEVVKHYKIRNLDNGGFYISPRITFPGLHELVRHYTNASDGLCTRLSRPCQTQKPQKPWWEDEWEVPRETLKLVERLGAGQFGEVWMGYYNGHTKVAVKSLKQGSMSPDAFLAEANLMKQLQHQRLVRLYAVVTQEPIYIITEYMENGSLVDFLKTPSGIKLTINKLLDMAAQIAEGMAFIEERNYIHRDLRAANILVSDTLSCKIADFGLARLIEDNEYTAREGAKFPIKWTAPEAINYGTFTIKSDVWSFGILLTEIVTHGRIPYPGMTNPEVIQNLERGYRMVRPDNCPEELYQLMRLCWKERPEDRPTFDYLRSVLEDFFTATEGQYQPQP
active FYN (human recombinant, 62.7 kDa), sequence (P06241 whole entry): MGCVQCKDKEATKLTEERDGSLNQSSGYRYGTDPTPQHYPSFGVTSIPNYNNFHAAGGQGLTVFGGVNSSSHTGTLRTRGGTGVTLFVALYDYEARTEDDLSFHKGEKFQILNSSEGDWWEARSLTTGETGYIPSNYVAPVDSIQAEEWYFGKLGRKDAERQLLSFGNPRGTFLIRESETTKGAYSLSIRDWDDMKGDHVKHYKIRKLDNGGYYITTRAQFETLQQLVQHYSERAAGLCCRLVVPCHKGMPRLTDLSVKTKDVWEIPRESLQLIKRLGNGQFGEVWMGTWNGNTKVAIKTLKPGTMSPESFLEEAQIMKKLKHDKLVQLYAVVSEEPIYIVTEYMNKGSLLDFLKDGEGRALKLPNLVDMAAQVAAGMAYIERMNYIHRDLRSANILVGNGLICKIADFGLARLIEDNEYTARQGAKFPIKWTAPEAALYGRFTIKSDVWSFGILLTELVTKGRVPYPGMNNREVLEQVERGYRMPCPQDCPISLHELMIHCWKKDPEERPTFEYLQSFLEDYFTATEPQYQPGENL
LYN, sequence (P07948 whole entry): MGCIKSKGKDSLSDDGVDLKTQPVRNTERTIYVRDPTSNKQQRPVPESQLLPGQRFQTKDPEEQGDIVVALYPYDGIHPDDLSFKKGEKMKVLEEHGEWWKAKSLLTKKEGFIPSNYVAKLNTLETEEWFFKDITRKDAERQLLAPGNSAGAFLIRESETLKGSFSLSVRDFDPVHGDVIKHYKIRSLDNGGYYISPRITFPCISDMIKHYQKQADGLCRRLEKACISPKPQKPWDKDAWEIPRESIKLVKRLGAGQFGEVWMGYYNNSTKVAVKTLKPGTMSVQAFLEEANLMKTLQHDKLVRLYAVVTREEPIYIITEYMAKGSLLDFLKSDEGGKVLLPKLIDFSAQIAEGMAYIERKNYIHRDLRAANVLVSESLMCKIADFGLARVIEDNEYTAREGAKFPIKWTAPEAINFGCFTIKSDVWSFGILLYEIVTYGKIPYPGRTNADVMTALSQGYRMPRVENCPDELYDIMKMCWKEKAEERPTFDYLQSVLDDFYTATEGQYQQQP
FLT-4, sequence (P35916 25-1363): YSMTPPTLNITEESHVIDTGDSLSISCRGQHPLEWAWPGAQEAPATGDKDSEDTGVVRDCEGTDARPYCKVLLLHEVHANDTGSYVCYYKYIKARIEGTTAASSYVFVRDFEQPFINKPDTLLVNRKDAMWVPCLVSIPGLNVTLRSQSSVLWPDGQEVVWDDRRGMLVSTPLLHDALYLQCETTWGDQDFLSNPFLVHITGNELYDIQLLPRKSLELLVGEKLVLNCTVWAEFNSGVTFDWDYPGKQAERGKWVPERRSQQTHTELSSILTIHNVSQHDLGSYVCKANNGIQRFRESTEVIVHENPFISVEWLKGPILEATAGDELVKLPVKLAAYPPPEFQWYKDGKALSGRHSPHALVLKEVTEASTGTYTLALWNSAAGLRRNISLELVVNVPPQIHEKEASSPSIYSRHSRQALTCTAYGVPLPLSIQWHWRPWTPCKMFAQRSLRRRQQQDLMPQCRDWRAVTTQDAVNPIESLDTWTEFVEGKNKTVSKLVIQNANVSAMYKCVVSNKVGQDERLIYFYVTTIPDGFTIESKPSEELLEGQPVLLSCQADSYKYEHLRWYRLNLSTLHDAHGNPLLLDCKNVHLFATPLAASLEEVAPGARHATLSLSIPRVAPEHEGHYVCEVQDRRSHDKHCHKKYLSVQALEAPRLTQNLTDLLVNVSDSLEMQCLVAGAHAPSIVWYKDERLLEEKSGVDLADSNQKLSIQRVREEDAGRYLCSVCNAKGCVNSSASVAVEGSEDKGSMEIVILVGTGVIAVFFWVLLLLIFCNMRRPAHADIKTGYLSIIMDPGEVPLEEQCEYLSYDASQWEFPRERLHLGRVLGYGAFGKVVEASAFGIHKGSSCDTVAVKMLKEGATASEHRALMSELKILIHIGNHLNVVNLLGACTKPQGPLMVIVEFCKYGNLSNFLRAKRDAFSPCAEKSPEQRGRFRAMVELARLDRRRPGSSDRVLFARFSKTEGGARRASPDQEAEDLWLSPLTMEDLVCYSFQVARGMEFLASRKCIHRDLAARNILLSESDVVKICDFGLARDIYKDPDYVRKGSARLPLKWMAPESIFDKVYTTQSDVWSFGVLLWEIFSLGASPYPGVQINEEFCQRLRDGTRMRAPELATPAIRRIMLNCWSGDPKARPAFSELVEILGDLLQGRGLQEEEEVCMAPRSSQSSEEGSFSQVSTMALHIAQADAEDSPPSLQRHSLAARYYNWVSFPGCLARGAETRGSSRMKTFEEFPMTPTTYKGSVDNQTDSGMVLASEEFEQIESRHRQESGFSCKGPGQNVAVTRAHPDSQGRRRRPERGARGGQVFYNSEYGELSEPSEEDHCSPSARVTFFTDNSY

O=C(Nc1ccc(CN2CCN(c3nccc(Nc4cc(C5CC5)[nH]n4)n3)CC2)cc1)c1ccccc1C(F)(F)F [Compound 2, N-(4-((4-(4-((5-cyclopropyl-1H-pyrazol-3-yl)amino)pyrimidin-2-yl)piperazin-1-yl)methyl)phenyl)-2-(trifluoromethyl)-benzamide]
IC50 [1]: 9 nM | Pain threshold ([2]; 10 mg/kg daily orally, day 14 post surgery): 308 g | Pain threshold [2, 10]: 333 g | Pain threshold: MPE (%) [2, 10]: 30.5% | Pain threshold [2, 11]: 323 g | Pain threshold: MPE (%) [2, 11]: 22.6% | Pain threshold [2, 12]: 313 g | Pain threshold: MPE (%) [2, 12]: 18.2% | Pain threshold [2, 13]: 298 g | Pain threshold: MPE (%) [2, 13]: 21% | Pain threshold ([2]; 30 mg/kg daily orally, day 14 post surgery): 305 g | Pain threshold [2, 14]: 358 g | Pain threshold: MPE (%) [2, 14]: 44% | Pain threshold [2, 15]: 343 g | Pain threshold: MPE (%) [2, 15]: 35.5% | Pain threshold [2, 16]: 335 g | Pain threshold: MPE (%) [2, 16]: 38.2% | Pain threshold [2, 17]: 320 g | Pain threshold: MPE (%) [2, 17]: 43% | IC50 [3]: 1.4 µM | IC50 [4]: 0.27 µM | IC50 [5]: 0.45 µM | inhibition at 0.1 µM [6]: > 50% | inhibition at 0.1 µM [7]: > 50% | average potency ratio (other SRC family kinases vs FYN) [8]: about 100 | IC50 ([8]; read-out: IC50, all other kinases examined of the SRC family): > 0.1 µM | effect on more than 70% of the remaining kinases examined [9]: practically ineffective
